Test [1] has as its system Pseudomonas aeroginosa, ATCC 15442. Nature of the test: Time-Kill Procedure (ASTM), rate of kill. In kind it is cell-based, Pseudomonas aeruginosa. The method, then:
The rate of kill for these organisms upon exposure to 9-decenoic acid was determined using the American Society for Testing and Materials (ASTM) procedure entitled “Standard Test Method for the Assessment of Microbiocidal Activity of Test Materials Using a Time-Kill Procedure”, October 1998. This procedure incorporates the recommendations described in the “Manual of Clinical Microbiology,”5th ed., edited by A. B. Balows et al., ASM, Washington, and is directed by the Federal Register, June 1994.
Stock cultures were transferred into TSB and incubated for 18-24 hours at 37±2° C. A second transfer was made onto TSA plates and were incubated for 18-24 hours at 37±2° C. The plates were removed from incubation and the bacterial growth washed from the agar surface using Butterfield's Phosphate Buffered Dilution Water (PBDW). The bacterial suspension was adjusted to contain approximately 10^8 Colony Forming Units (CFU)/ml with PBDW using spectrophometric methods extant in the laboratory.
The concentrated 9-decenoic acid was diluted 1:40 in filter sterilized isopropanol to yield a 2.5% stock solution. Subsequent dilutions to the 9-decenoic acid stock solutions were made with sterile Deionized Water (DI) to achieve concentrations of 0.1%, 0.05%, 0.01%, and 0.001%. The pH was determined for each dilution; pH values ranged from 4.4-4.1. Additionally, the 9-decenoic acid stock solution was adjusted to pH 7 with 1 N NaOH and serially diluted with sterile DI to achieve concentrations of 1.0%, 0.75% and 0.5%.
Compliant with the ASTM procedure cited, for each challenge microorganism a 9.9 ml aliquot of the prepared 9-decenoic acid suspension was added to a sterile tube. A 0.1 ml aliquot of the standardized inoculum was added to the 9-decenoic acid solution representing the start of the test exposure. The inoculated 9-decenoic acid solution was immediately mixed thoroughly. The inoculated suspension was held at room temperature for 0.5, 2, 5, 7 and 10 minute exposure times for tests run at ˜pH 4. The pH 7 tests were held at room temperature for 0.5 and 2 minutes.
At each exposure sample time, a 1.0 ml aliquot of the inoculated 9-decenoic acid suspension was transferred to 9.0 ml of D/E Neutralizing Broth. Additional ten-fold serial dilutions were made in PBDW and plated in duplicate on TSA. All plates were incubated for 48 hours at 37±2° C. and visually examined for growth. The plates are enumerated, recorded and log kill determined for each time point.
The following study controls were conducted: culture purity, neutralizer sterility, initial suspension population, test population, neutralization verification and a negative control using isopropanol. Culture purity was verified by performing a streak plate for isolated colonies on the each culture used. All cultures were determined to be pure based on consistent colony morphology typical for the test organism. The neutralizer sterility was confirmed by no growth in an incubated sample.
The population of the initial and test culture were determined by serial dilution, plating and enumerating after incubation. The initial suspension were determined to be ≧10^4 CFU/ml. The test culture population was used for calculation of the log reduction achieved at each time point.
Neutralization effectiveness was verified by a filtration test. For each organism, four tubes were prepared with 9 ml D/E Neutralizing Broth and fewer than 100 CFU/ml of the organism. A 1.0 ml aliquot of prepared 9-decenoic acid was added to each tube. Immediately, the entire contents of 2 tubes were filtered through a filtration apparatus and rinsed with sterile diluent. The remaining 2 tubes were held at room temperature for 30 minutes and then the entire contents were filtered using the same procedure. The filters were aseptically transferred to TSA plates and incubated for 48 hours at 37±2° C. and visually examined for growth.
This control was inoculated, subcultured and incubated as in the test procedure.

The subject of test [2] is Aureobasidium pullulans (ATCC 12536). Nature of the test: MIC on Potato Dextrose Agar surface. In kind it is cell-based. The following applies: PDA agar, 25-30° C., least concentration that completely inhibited growth. The method, then:
The efficacy of antimicrobial compositions in accordance with aspects of the invention against the following organisms was determined as follows. The following organisms were incubated in the presence of varying concentrations of 9-decenoic acid (9-DA) on an agar surface: Aspergillus parasiticus (ATCC 56857), Trichoderma virens (ATCC 9645), Aureobasidium pullulans (ATCC 12536), Aspergillus flavus (ATCC 96045), Cladosporium cladosporiodes (ATCC 16022), Aspergillus flavus (ATCC 5917), Aspergillus oryzae (ATCC 10124), Aspergillus parasiticus (ATCC 13539), Ulocladium atrum (ATCC 52426), Candida albicans (ATCC 11651), Alternaria alternata (ATCC 52170), Stachybotrys chartarum (ATCC 16026), Aspergillus niger (ATCC 11414).
Fungal spores were hydrated in 0.1% Tween 80 and then plated onto Potato Dextrose Agar (PDA) (Difco # 213400; Becton, Dickinson and Company, Sparks, Md.) and incubated at 25-30° C. for six (6) days. The spores were washed from the surface with 5 ml of 0.1% Tween 80 and enumerated.
PDA plates were prepared according to the manufacturer's instructions through sterilization. The agar was tempered to approximately 50° C. and was filter sterilized. […]
The agar plates were inoculated with the spore solution to achieve 10^2 spores/plate. […] The percent coverage of growth on the agar surface was recorded at each sample point.

Consider `C=CCCCCCCCC(=O)O` [9-decenoic acid], for which the “Log reduction of organisms after exposure” value (“Log reduction of organisms” for short) in test [1] (0.01%, pH 4.4, exposure 0.5 minutes) was over 6.1 log; in test [1] (0.01%, pH 4.4, exposure 2 minutes), over 6.1 log; in test [1] (0.01%, pH 4.4, exposure 5 minutes) it was over 6.1 log; in test [1] (0.01%, pH 4.4, exposure 7 minutes) it was over 6.1 log; in test [1] (0.01%, pH 4.4, exposure 10 minutes) it was over 6.1 log; in test [1] (0.05%, pH 4.1, exposure 0.5 minutes) it was over 6.1 log. Besides, the “Log reduction of organisms” value in test [1] (0.05%, pH 4.1, exposure 2 minutes) is listed as over 6.1 log; in test [1] (0.05%, pH 4.1, exposure 5 minutes), over 6.1 log; in test [1] (0.05%, pH 4.1, exposure 7 minutes), over 6.1 log; in test [1] (0.05%, pH 4.1, exposure 10 minutes) it was over 6.1 log; in test [1] (0.1%, pH 4.1, exposure 0.5 minutes), over 6.1 log; in test [1] (0.1%, pH 4.1, exposure 2 minutes), over 6.1 log. For the same molecule, the “Log reduction of organisms” value in test [1] (0.1%, pH 4.1, exposure 5 minutes) is given as over 6.1 log; in test [1] (0.1%, pH 4.1, exposure 7 minutes) it was over 6.1 log; in test [1] (0.1%, pH 4.1, exposure 10 minutes), over 6.1 log. The same molecule gave an MIC in test [2] of 0.01%.

(Values after US7951232B2, “Surface coating compositions and methods” (Elevance Renewable Sciences, Inc., priority 2006, dated 2011).)
